Laboratory results taken from patent US8815872B2, “Macrocyclics pyrimidines as aurora kinase inhibitors” (Merck Patent GmbH, priority 2008, dated 2014).

What was measured:
Aurora A = target: T1, Aurora A (Homo sapiens, UniProt O14965); assay: Aurora A enzyme assay (Caliper LC3000 mobility shift); format: biochemical
T1 construct: N-terminal GST fusion with full length Aurora A (1-403 amino acids); purchased Carna Biosciences 05-101
T1 sequence (O14965 1-403): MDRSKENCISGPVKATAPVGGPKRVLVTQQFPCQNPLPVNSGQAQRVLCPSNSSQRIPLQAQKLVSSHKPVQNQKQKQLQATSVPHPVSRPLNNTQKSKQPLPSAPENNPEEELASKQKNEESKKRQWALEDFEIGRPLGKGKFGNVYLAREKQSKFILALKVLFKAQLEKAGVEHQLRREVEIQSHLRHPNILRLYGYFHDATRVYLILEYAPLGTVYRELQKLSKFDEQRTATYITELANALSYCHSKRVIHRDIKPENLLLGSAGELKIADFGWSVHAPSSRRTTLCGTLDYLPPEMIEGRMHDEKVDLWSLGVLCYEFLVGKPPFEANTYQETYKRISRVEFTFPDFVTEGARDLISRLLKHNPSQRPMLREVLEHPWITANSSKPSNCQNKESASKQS
Procedure: (§1) The Aurora and other kinase assays described here were performed on two Caliper Life Sciences systems, the LC3000 and the Desktop Profiler. These provide data on enzyme activity via measurement of the relative amounts of phosphorylated or unphosphorylated fluorescently labelled substrate peptide at the end of an enzymatic reaction. These different states of peptide are resolved by applying a potential difference across the sample. The presence of a charged phosphate group on the product (as opposed to the substrate) causes a different peptide mobility between the two peptides. This is visualized by excitation of a fluorescent label on the substrate and product peptides and represented as peaks within the analysis software.
For example, in order to measure inhibitor activity of Aurora A inhibitors in the Caliper Life Sciences LC3000, a TTP Mosquito liquid handling instrument was used to place […] of an appropriate concentration of inhibitor in 100% DMSO (for a dose response curve calculation) into each well of a 384-well plate. To this reaction components were added to a final volume of 25 μl: • 0.067 ng/μl GST-Aurora A (Carna Biosciences 05-101. N-terminal GST fusion with full length Aurora A (1-403 amino acids), accession number NP_940835.1). • 15 μM ATP (Fluka, 02055) • 1 mM DTT (Sigma, D0632) • 1 mM MgC12 (Sigma, M1028) • 1 μM substrate peptide (sequence FITC-LRRASLG-(CONH2), synthesized by Tufts Peptide Synthesis service. • 100 mM HEPES pH 7.5 (Calbiochem, 391338) • 0.015% Brij-35 (Sigma, B4184)
The reaction was incubated for 90 min at 25° C., and then stopped by the addition of 70 μl of Stop buffer (100 mM HEPES pH 7.5, 0.015% Brij-35, 10 mM EDTA (Sigma, E7889)).
The plate was read on a Caliper LC 3000 in an Off-Chip mobility shift assay format, using the following parameters for a 12-sipper chip: screening pressure −1.8 psi, upstream voltage −2700, downstream voltage −1000. These conditions cause unphosphorylated substrate and phosphorylated product peptide to resolve as separate peaks allowing direct measurement of percentage of conversion of substrate to product. The percent conversion was plotted against concentration of inhibitor to produce a sigmoidal dose response curve, from which an IC50 was calculated using XLFit for Microsoft Excel.

Aurora B = Aurora B (Homo sapiens, UniProt Q96GD4); assay: Aurora B enzyme assay (Caliper); format: biochemical
Procedure: as §1

[1] = target: kinases (not incl. Aurora); assay: Kinase inhibition profile (not incl. Aurora); format: biochemical; settings: hit means >79% inhibition
Procedure: as §1
The Desktop Profiler utilizes the same principal as the LC 3000 for calculating percentage conversion of a substrate to product. Caliper Life Sciences provided proprietary flash frozen pre-made 384 well plates containing selected kinases. Each column in the 384 well plate contained a particular selected kinase. A second plate, the ‘substrate plate’ contained a mix of fluorescently labeled peptide substrate and ATP. These were arranged in columns so that transfer for substrate plate to enzyme plate provided the correct enzyme with the correct substrate/ATP concentration.
Compounds were added to a thawed enzyme plate in the desired format, in single concentrations. Reactions were initiated by transfer of the ubstrate/ATP mix from the substrate plate. The enzyme plate was incubated for 90 mins at 25 °C. The reaction was stopped by addition of […] of Stop Buffer (100 mM HEPES pH 7.5, 0.015% Brij-35, 10 mM EDTA (Sigma, E7889)).
Plates were read in a manner identical to that of the LC3000, and the ratio between substrate and product peaks provided the activity of the enzyme in that well. This was best represented by a plate heat map which colors each well by percent inhibition as compared to positive and negative controls (no inhibitors and no ATP respectively).

A549 = assay: Cellular activity A549; format: cell-based; settings: Homo sapiens
Procedure: (§2) The susceptibility of a particular cell to treatment with the compounds according to the invention was determined by in vitro tests. Typically, a culture of the cell was combined with a compound according to the invention at various concentrations for a period of time that was sufficient to allow the active agents to induce cell death or to inhibit migration, usually between about one hour and one week. In vitro testing was carried out using cultivated cells from a biopsy sample. The viable cells remaining after the treatment then were counted.

MiaPaca2 = assay: Cellular activity MiaPaca2; format: cell-based; settings: for IC50: Homo sapiens, MIA PaCa-2
Procedure: as §2

Aurora B, sequence (Q96GD4 whole entry): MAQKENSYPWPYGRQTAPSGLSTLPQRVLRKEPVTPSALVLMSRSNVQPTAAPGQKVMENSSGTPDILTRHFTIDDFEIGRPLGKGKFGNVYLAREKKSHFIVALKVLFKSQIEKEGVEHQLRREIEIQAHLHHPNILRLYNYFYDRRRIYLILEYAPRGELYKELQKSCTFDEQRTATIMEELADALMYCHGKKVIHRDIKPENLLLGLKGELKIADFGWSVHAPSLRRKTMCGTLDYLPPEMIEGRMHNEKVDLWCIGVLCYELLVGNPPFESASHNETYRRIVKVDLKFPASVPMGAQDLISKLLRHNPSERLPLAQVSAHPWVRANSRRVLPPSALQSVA

## C=CC1CC2/C=C/COc3cccc(c3)Nc3ncc(F)c(n3)N[C@H]2[C@H]1C(N)=O (stereo partly drawn)
Aurora A
  IC50: 101 to 1000 nM
Aurora B
  IC50: 101 to 1000 nM
[1]; at 1 μM
  Kinase Inhibition Profile (not incl. Aurora) # kinases hit/# kinases tested: 0/36
[1]; at 10 μM
  Kinase Inhibition Profile (not incl. Aurora) # kinases hit/# kinases tested: 12/255

## C=CC1CC2/C=C\COc3cccc(c3)Nc3ncc(F)c(n3)N[C@H]2[C@H]1C(N)=O (stereo partly drawn)
Aurora A
  IC50: 1 to 100 nM
Aurora B
  IC50: 1 to 100 nM
[1]; at 1 μM
  Kinase Inhibition Profile (not incl. Aurora) # kinases hit/# kinases tested: 0/36 at 1 uM

## CCC1CC2/C=C\COc3cccc(c3)Nc3ncc(F)c(n3)N[C@H]2[C@H]1C(N)=O (stereo partly drawn)
Aurora A
  IC50: 1 to 100 nM
Aurora B
  IC50: 1 to 100 nM
[1]; at 1 μM
  Kinase Inhibition Profile (not incl. Aurora) # kinases hit/# kinases tested: 1/36 at 1 uM

## CCC1CC2CCCOc3cccc(c3)Nc3ncc(F)c(n3)N[C@H]2[C@H]1C(N)=O (stereo partly drawn)
Aurora A
  IC50: 101 to 1000 nM
Aurora B
  IC50: 101 to 1000 nM
[1]; at 1 μM
  Kinase Inhibition Profile (not incl. Aurora) # kinases hit/# kinases tested: 0/36 at 1 uM

## NC(=O)[C@H]1[C@H]2C[C@H]3[C@H]1Nc1nc(ncc1F)Nc1cccc(c1)[C@H](OCCCN1CCOCC1)CS[C@@H]3C2
Aurora A
  IC50: 101 to 1000 nM
Aurora B
  IC50: 101 to 1000 nM
A549
  IC50: 1000 to 6250 nM
MiaPaca2; MiaPaca2
  Cellular Activity MiaPaca2 IC50 (nM): +++=

## NC(=O)[C@H]1[C@H]2C[C@H]3[C@H]1Nc1nc(ncc1F)Nc1ccc4c(c1)CN(CC4)C(=O)CS[C@@H]3C2
Aurora A
  IC50: 1 to 100 nM
Aurora B
  IC50: 1 to 100 nM
A549
  IC50: 1000 to 6250 nM
MiaPaca2
  IC50: 1000 to 6250 nM

## NC(=O)[C@H]1[C@H]2C[C@H]3[C@H]1Nc1nc(ncc1F)Nc1ccc4c(c1)N(CC4)C(=O)CS[C@@H]3C2
Aurora A
  IC50: 1 to 100 nM
Aurora B
  IC50: 101 to 1000 nM
A549
  IC50: > 6250 nM
MiaPaca2
  IC50: > 6250 nM

## NC(=O)[C@H]1[C@H]2C[C@H]3[C@H]1Nc1nc(ncc1F)Nc1cccc(c1)[C@@H](O)CS[C@@H]3C2
Aurora A
  IC50: 1 to 100 nM
Aurora B
  IC50: 1 to 100 nM
A549
  IC50: 101 to 1000 nM
MiaPaca2
  IC50: 101 to 1000 nM

## CN1CCN(c2ccc3cc2[C@@H](O)CS[C@@H]2C[C@@H]4C[C@H]2[C@@H](Nc2nc(ncc2F)N3)[C@H]4C(N)=O)CC1
Aurora A
  IC50: 1 to 100 nM
Aurora B
  IC50: 1 to 100 nM
A549
  IC50: 1 to 100 nM
MiaPaca2
  IC50: 1 to 100 nM
[1]; at 1 μM
  Kinase Inhibition Profile (not incl. Aurora) # kinases hit/# kinases tested: 121/267 at 1 μM

## CN1CCN(c2ccc3cc2[C@H](O)CS[C@@H]2C[C@@H]4C[C@H]2[C@@H](Nc2nc(ncc2F)N3)[C@H]4C(N)=O)CC1
Aurora A
  IC50: 1 to 100 nM
Aurora B
  IC50: 1 to 100 nM
A549
  IC50: 1 to 100 nM
MiaPaca2
  IC50: 1 to 100 nM
[1]; at 1 μM
  Kinase Inhibition Profile (not incl. Aurora) # kinases hit/# kinases tested: 121/267 at 1 μM

## CN1CCN(c2ccc3cc2CC(=O)NC[C@@H]2C[C@@H]4C[C@H]2[C@@H](Nc2nc(ncc2F)N3)[C@H]4C(N)=O)CC1
Aurora A
  IC50: 101 to 1000 nM
Aurora B
  IC50: 1000 to 6250 nM
A549
  IC50: > 6250 nM
MiaPaca2
  IC50: 1000 to 6250 nM
[1]; at 1 μM
  Kinase Inhibition Profile (not incl. Aurora) # kinases hit/# kinases tested: 0/73 at 1 μM

## CN1CCN(c2ccc3cc2C(=O)NC[C@@H]2C[C@@H]4C[C@H]2[C@@H](Nc2nc(ncc2F)N3)[C@H]4C(N)=O)CC1
Aurora A
  IC50: 101 to 1000 nM
Aurora B
  IC50: 101 to 1000 nM
A549
  IC50: > 6250 nM
MiaPaca2
  IC50: 1000 to 6250 nM
[1]; at 1 μM
  Kinase Inhibition Profile (not incl. Aurora) # kinases hit/# kinases tested: 0/73 at 1 μM

## CN1CCN(c2cc3cc(c2)C(=O)NC[C@@H]2C[C@@H]4C[C@H]2[C@@H](Nc2nc(ncc2F)N3)[C@H]4C(N)=O)CC1
Aurora A
  IC50: 1 to 100 nM
A549
  IC50: 1000 to 6250 nM
MiaPaca2
  IC50: 101 to 1000 nM
[1]; at 1 μM
  Kinase Inhibition Profile (not incl. Aurora) # kinases hit/# kinases tested: 14/264 at 1 μM

## NC(=O)[C@H]1[C@@H]2C[C@H]3CNC(=O)Cn4cc(cn4)Nc4ncc(F)c(n4)N[C@@H]1[C@@H]3C2
Aurora A
  IC50: 1 to 100 nM
Aurora B
  IC50: 1 to 100 nM
A549
  IC50: > 6250 nM
MiaPaca2
  IC50: 1000 to 6250 nM
[1]; at 1 μM
  Kinase Inhibition Profile (not incl. Aurora) # kinases hit/# kinases tested: 2/73 at 1 μM

## NC(=O)[C@H]1[C@H]2C[C@H]3[C@H]1Nc1nc(ncc1F)Nc1cccc(c1)CSS[C@@H]3C2 [drawing 213]
Aurora A
  IC50: 1 to 100 nM
Aurora B
  IC50: 1 to 100 nM
A549
  IC50: 1000 to 6250 nM
MiaPaca2
  IC50: 1000 to 6250 nM

## NC(=O)[C@H]1[C@H]2C[C@H]3[C@H]1Nc1nc(ncc1F)Nc1cccc(c1)CCS[C@@H]3C2 [drawing 234]
Aurora A
  IC50: 1 to 100 nM
Aurora B
  IC50: 1 to 100 nM
A549
  IC50: 1000 to 6250 nM
MiaPaca2
  IC50: 1000 to 6250 nM
